Assay results as given in US20080154102A1, “Intraoperative imaging methods” (priority 2006, published 2008).

Key:
[1] = Absorbance spectrometry; format: physicochemical
Protocol: (§1) Absorbance spectrometry was performed with a 1-cm path length quartz cuvette in a USB2000 fiber-optic spectrometer (Ocean Optics, Dunedin, Fla.). Fluorescence spectrometry was performed with a 1-cm path length, 1.5 mL disposable methacrylate cuvette (Fisher Scientific, Hampton, N.H.) in a HR2000 fiber-optic spectrometer, and CUV-ALL-UV four-way cuvette holder (Ocean Optics), using a 655 nm laser diode light source (OPCOM O.E. Inc., Xiamen, China) with maximum output less than 5 mW. Data acquisition was performed with a computer using an OOI-Base32 spectrometer operating software package (Ocean Optics). The spectral range of the USB2000-FL spectrometer was from 350 to 1000 nm with spectral resolution of 7.6 nm, and that of the HR2000 spectrometer was from 200 to 1100 nm with a spectral resolution of 6.7 nm.

[2] = Fluorescence spectrometry and fluorescence quantum yield; format: physicochemical
Protocol: as §1
Fluorescence intensity was measured in each solvent (PBS, FBS, and methanol) at each concentration of the dye to determine the effect of the methylene blue concentration and solvents on total fluorescence yield. Fluorescence quantum yields of methylene blue in PBS, FBS, and methanol were calculated using oxazine725 in ethylene glycol (quantum yield: 19%) as a calibration standard, under the conditions of matched absorbance of methylene blue in each solvent.

[3] = Environment-, concentration- and pH-dependence of MB fluorescence; format: physicochemical
Protocol: For the experiment shown in FIG. 1A, pure methylene blue powder was dissolved in phosphate-buffered saline (pH 7.4), 100% fetal bovine serum, or absolute methanol, at the concentration shown, and fluorescence intensity (arbitrary values) measured.
For this experiment, pure methylene blue powder was dissolved in PBS, FBS, or methanol, at the concentrations shown in FIGS. 1A-C, the spectrum of its absorbance and fluorescence emission obtained, and the peak of each identified.
Finally, the pH dependence of MB was examined, by dissolving MB in PBS (pH 6), Ascorbic Acid, HCl, and a NaHCO3-buffered solution. […] This is an important consideration because intermolecular quenching and internal absorption often limit the usable dose range of fluorescent contrast agents.

[4] = system: coronary arteries and myocardium; assay: Angiographic and myocardial perfusion imaging in rats; format: in vivo
Protocol: (§2) Male Sprague-Dawley, 300 g rats obtained from Charles River Laboratories (Wilmington, Mass.) were anesthetized with 65 mg/kg IP pentobarbital. 30 kg adult female Yorkshire pigs (E.M. Parsons & Sons, Hadley, Mass.) were induced with 4.4 mg/kg intramuscular Terazol (Fort Dodge Labs, Fort Dodge, Iowa). Pigs were intubated and maintained with 1.5-2% isoflurane.
(§3) In anesthetized rats, 0.1, 0.5 and 1 mg/kg MB were injected intravenously, and then images were taken during 15 min after injection. Signal to background ratio (SBR) (the signal of left anterior descending branch of coronary artery (LAD) relative to that of chest wall, and the signal of myocardium relative to that of chest wall) was quantified using the same region of interest (ROI) through entire observation. In anesthetized pigs, 100 μL/kg of 0.5% methylene blue (1.6 μmol/kg) was injected intravenously and then the hearts were observed using the imaging system described herein. For multi-wavelength fluorescence imaging, 0.25 ml of 100 μM ICG (75 nmol/kg) was injected intravenously in rats and 0.06 mg/kg ICG (75 nmol/kg) in pigs.
The system was adjusted to account for the optical properties of methylene blue. Briefly, the light source of the original system is composed of a white light source and a near-infrared light source. The surgical field is illuminated with both lights, and its excitation fluence rate is 5 mW/cm^2. White light and near-infrared images were able to be captured separately using a dichroic filter cube set, and these images could be merged. Images were captured and refreshed 15 times a second.
The system was modified in 3 ways for use with MB. First, the white lights were filtered with HQ675SP (Chroma Technology, Brattleboro, Vt.). Second, 4 pairs of 400 mA, 660 nm LEDs were added and filtered with HQ650/45X (chroma.) instead of the near-infrared light source. Excitation fluence rate with this new light source is 1 mW/cm^2. Third, the dichroic filter and emission filter were changed to 680 dcxr (chroma.), HQ700/35 (chroma.), respectively.

[5] = system: coronary arteries and myocardium; assay: Angiographic and myocardial perfusion imaging in pigs; format: in vivo
Protocol: as §2, §3
The system was adjusted to account for the optical properties of methylene blue. Briefly, the light source of the original system is composed of a white light source and a near-infrared light source. The surgical field is illuminated with both lights, and its excitation fluence rate is 5 mW/cm^2. […]

[6] = system: common bile duct; assay: Cholangiographic imaging with methylene blue in rats; format: in vivo; settings: 1 mg/kg iv
Protocol: In anesthetized rats, 100 μL/kg of 1% MB (1 mg/kg) was injected intravenously via penile vein. A simultaneous color video/NIR fluorescence intraoperative imaging system was employed for quantification of fluorescence images. For multi-wavelength fluorescence imaging, 0.25 ml of 100 uM ICG (75 nmol/kg) was injected intravenously in rat and hepatic arteriography and portography can be seen.

[7] = system: common bile duct; assay: Cholangiographic imaging with methylene blue in pigs; format: in vivo
Protocol: In anesthetized pigs, bile duct was visualized by intravenous injection of 100 μL/kg of 1% MB, or direct cannulation into the common bile duct for injection of 50 μM of MB. Fluorescence intensities of bile duct, liver (right lobe), and abdominal wall were measured at 3, 5, 10, 20, and 30 minutes following injection. For hepatic arteriography and portography, 0.06 mg/kg ICG (75 nmol/kg) is injected intravenously.

[8] = system: thoracic duct; assay: Thoracic duct mapping in pigs; format: in vivo; settings: 5 mL of 1% into inguinal lymph node
Protocol: In anesthetized pigs, 5 mL of 1% methylene blue was injected into an inguinal lymph node, then the thoracic duct was observed.

[9] = system: ureter; assay: Ureteral mapping with methylene blue in pigs; format: in vivo; settings: preclinical studies, in some cases
Protocol: In anesthetized 3 pigs, 1 mg/kg of methylene blue was injected intravenously and then the abdomen was opened surgically and ureter was identified by imaging. For pelvic arteriography, 0.06 mg/kg ICG (75 nmol/kg) was injected intravenously.

[10] = system: common bile duct, vasculature, coronary artery, myocardium; assay: Multi-wavelength fluorescence imaging with MB and ICG; format: in vivo, pigs; settings: pig, ICG 800 nm, MB 700 nm
Protocol: Therefore, MB was used to visualize CBD in an anesthetized pig, while ICG was used to visualize vasculature.
To evaluate the possibility of multi-wavelength fluorescent imaging, ICG and methylene blue were used.
1 mg/kg methylene blue IV injection was followed 30 min after by 0.03 mg/kg ICG IV injection. […] NIR camera exposure time was 100 msec.
Next, one of the diagonal branches of the coronary artery (D2) was clamped (white arrow), and then 1 mg/kg of methylene blue was injected intravenously; see the second row of images. Just after releasing the clamp, 0.03 mg/kg ICG was injected intravenously. […] The right-most image in the second row was created by merging the image of the coronary arteriography using methylene blue at clamping D2 and the image using ICG after declamping D2.

[11] = system: parathyroid gland; assay: Parathyroid gland imaging using methylene blue; format: in vivo; settings: 2 mg/kg over 15 minutes, along with NaHCO3
Protocol: To determine whether MB fluorescence emissions could be used to image the parathyroid gland, 2 mg/kg MB was administered over 15 minutes, along with NaHCO3, prior to surgery.

[12] = clinical use; cited from earlier work

## CN(C)c1ccc2nc3ccc(=[N+](C)C)cc-3sc2c1 [Methylene Blue, methylene blue]
[1]; in FBS
  Excitation Wavelength Maximum, (FBS): 666 nm
  Molar Extinction Coefficient, (FBS): 86500 M⁻¹ cm⁻¹
[1]; in PBS
  Excitation Wavelength Maximum, PBS: 665 nm
  Molar Extinction Coefficient, PBS: 71500 M⁻¹ cm⁻¹
[1]; in methanol
  Excitation Wavelength Maximum, [MtOH]: [653] nm
  Molar Extinction Coefficient, [MtOH]: [71500] M^−1cm^−1
[2]; in FBS
  Emission Wavelength Maximum, (FBS): 685 (685) nm
  Fluorescence Quantum Yield, (FBS): 2.5%
[2]; in PBS
  Emission Wavelength Maximum, PBS: 685 (685) nm
  Fluorescence Quantum Yield, PBS: 5.5%
[2]; in methanol
  Emission Wavelength Maximum, [MtOH]: [681] nm
  Fluorescence Quantum Yield, [MtOH]: [9.5] %
[2]; peak shifts as a function of dye concentration, listed as MB
  emission wavelength of MB: 690-700 nm
[3]; Ascorbic Acid, HCl
  fluorescence in acidic solutions: essentially no fluorescence
[3]; PBS (pH 6), NaHCO3-buffered solution
  fluorescence at the more basic pH: significant fluorescence
[3]; equilibrium with leucomethylene blue
  pH favoring the fluorescent methylene blue form: ≥ 6
[3]; intermediate concentrations
  concentration of peak fluorescence intensity: 4 to 50 µM
[4]
  detection of peripheral branches and coronary vein: not detectable
[4]; 0.1 mg/kg intravenously
  intravascular (arterial) signals: not detected
[4]; 0.5 and 1.0 mg/kg intravenously
  detection of coronary arteries: could be detected
[4]; all loading doses
  homogenous signal from the heart wall: detectable
[5]; ligation of diagonal branch of left anterior descending artery
  signal of myocardium distal to occlusion vs well-perfused myocardium: five-fold lower signal
[5]; pig, intravenous injection via external jugular vein
  average SBR of whole heart wall fluorescence: about 1.5
[6]
  dye stacking in the liver: No dye stacking in the liver was observed
  time of maximal ratio of CBD intensity relative to pancreas and liver: around 10 minutes
  time ratio of CBD intensity stayed steady after injection: at least 30 minutes
  time until CBD detectable after intravenous injection: 2 to 3 min
[7]; direct cannulation into CBD
  CBD visualization after direct retrograde administration: successfully visualized the CBD
[7]; during hepatic dissection
  identification of intrahepatic bile duct by fluorescence: not identifiable
[7]; intravenous
  detection of common bile duct: detectable
[8]
  thoracic duct in the color image: very faint blue color
  thoracic duct in the fluorescence image: clearly visualized in the fluorescence image
[9]
  performance in the ureter: less than optimal performance
[10]
  structure shown in two-channel NIR imaging: shows the CBD
[11]
  visibility of the parathyroid: visible
[12]
  dose that sometimes causes severe adverse reactions (methemoglobinaemia or anaphylaxis): 7.5 mg/kg
